This is an account of results in ChEMBL document CHEMBL1201862, “PubChem BioAssay data set” (2004).

Some test systems named below: SF-539; UO-31; A549; TK-10; MDA-MB-435; RPMI-8226; DU-145; HT-29; CAKI-1; CCRF-CEM; K562; 786-0; MOLT-4; IGROV-1; LOX IMVI; SK-OV-3; SK-MEL-2; NCI-H460; SN12C; MDA-N.
Assay in all cases: NCI-60 cell line screen, 48 h

Molecules are shown by their SMILES.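 Briefly, cells in 96-well plates were exposed to five compound concentrations for 48 h, and endpoints were estimated by linear interpolation. At the GI50, growth is halved.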 The source made the active and inactive calls. Cut-off read from the data, not from the text of the source: active = GI50 up to about 1.1 µM and inactive = higher. Bounds are passed on as bounds.

As to `COC(=O)c1ccc(C)cc1CC1Cc2ccc(C)cc2C1=O` (stereo not given), the GI50 in the experiment on SF-539 was 5.6 µM (inactive); with UO-31 it was 19.9 µM (inactive); in the experiment on A549, 11 µM (inactive); in the experiment on TK-10, 13 µM (inactive); with MDA-MB-435, 1.63 µM (inactive); in the experiment with RPMI-8226, 7.91 µM (inactive). Besides, the GI50 was 22.9 µM (inactive) in the experiment on DU-145; 3.47 µM (inactive) with HT-29; 7.13 µM (inactive) in the experiment with CAKI-1; 9.91 µM (inactive) with CCRF-CEM; 3.21 µM (inactive) with K562; 13.7 µM (inactive) with 786-0. In addition, the GI50 is 5.68 µM (inactive) in the experiment on MOLT-4; 7.87 µM (inactive) with IGROV-1; 5.25 µM (inactive) in the experiment on LOX IMVI; 9.08 µM (inactive) in the experiment with SK-OV-3; 11.9 µM (inactive) in the experiment on SK-MEL-2; 6.61 µM (inactive) with NCI-H460. Further, the GI50 in the experiment on SN12C is 12.2 µM (inactive); in the experiment on MDA-N, 1.75 µM (inactive).

Take `CCCCn1c2c(n(CCCC)c1=S)-c1c(n(CCCC)c(=S)n1CCCC)S[Se][Se]S2`: the GI50 was 3.81 µM (inactive) in the experiment with SF-539; 2.5 µM (inactive) with UO-31; 19.7 µM (inactive) with A549; 4.42 µM (inactive) in the experiment with TK-10; 4.95 µM (inactive) in the experiment with MDA-MB-435; 2.49 µM (inactive) in the experiment with RPMI-8226. Further, the GI50 with DU-145 is 16.9 µM (inactive); in the experiment with HT-29, 7.23 µM (inactive); with CAKI-1 it was 1.62 µM (inactive); in the experiment with CCRF-CEM it was 0.26 µM (active); with K562, 1.63 µM (inactive); in the experiment on 786-0, 4.62 µM (inactive). Also, the GI50 was 2.87 µM (inactive) in the experiment on MOLT-4; 2.42 µM (inactive) in the experiment with IGROV-1; 6.05 µM (inactive) in the experiment on LOX IMVI; 22 µM (inactive) in the experiment on SK-OV-3; 8.75 µM (inactive) with SK-MEL-2; 9.95 µM (inactive) in the experiment on NCI-H460. Also, the GI50 with SN12C is 7.11 µM (inactive); with MDA-N, 8.83 µM (inactive).

`CCc1nc(N)nc(N)c1-c1ccc([N+](=O)[O-])c(NCc2ccccc2)c1`: the GI50 with SF-539 was 16.3 µM (inactive); with UO-31, 6.18 µM (inactive); in the experiment on A549, 6.17 µM (inactive); in the experiment with TK-10 it was 20.2 µM (inactive); in the experiment with MDA-MB-435, 14.6 µM (inactive); in the experiment on RPMI-8226, 11.6 µM (inactive). The GI50 is 14.9 µM (inactive) with DU-145; 7.91 µM (inactive) in the experiment on HT-29; 13.7 µM (inactive) with CAKI-1; 8.85 µM (inactive) in the experiment on CCRF-CEM; 5.2 µM (inactive) in the experiment with K562; 13.9 µM (inactive) in the experiment on 786-0. For the same molecule, the GI50 is 7.5 µM (inactive) with MOLT-4; 10.9 µM (inactive) in the experiment on IGROV-1; 14.5 µM (inactive) in the experiment on LOX IMVI; 20.4 µM (inactive) in the experiment with SK-OV-3; 21.6 µM (inactive) in the experiment with SK-MEL-2; 6.17 µM (inactive) with NCI-H460. The GI50 is 20 µM (inactive) in the experiment on SN12C and 16 µM (inactive) in the experiment on MDA-N.

Consider `O=c1cc(-c2ccccc2)oc2ccc(Cl)cc12` [6-CHLOROFLAVONE], for which the GI50 in the experiment with SF-539 is 37.7 µM (inactive); in the experiment with UO-31, 37.4 µM (inactive); with A549 it was > 100 µM (inactive); in the experiment with TK-10 it was 50 µM (inactive); with MDA-MB-435 it was > 41.5 µM (inactive); with RPMI-8226, > 73.5 µM (inactive). The GI50 was > 56.6 µM (inactive) in the experiment with DU-145; > 100 µM (inactive) with HT-29; > 62.1 µM (inactive) in the experiment with CAKI-1; > 77.8 µM (inactive) in the experiment with CCRF-CEM; > 74.6 µM (inactive) in the experiment on K562; 33.3 µM (inactive) in the experiment on 786-0. The GI50 in the experiment with MOLT-4 was > 74.6 µM (inactive); with IGROV-1, > 82 µM (inactive); with LOX IMVI it was > 56.4 µM (inactive); in the experiment on SK-OV-3, 68.2 µM (inactive); in the experiment with SK-MEL-2 it was > 84.7 µM (inactive); in the experiment on NCI-H460, > 100 µM (inactive). Further, the GI50 is > 69.8 µM (inactive) in the experiment with SN12C and > 41.4 µM (inactive) in the experiment with MDA-N.

Regarding `O=C1Oc2ccccc2C(=O)/C1=C\Nc1nc(-c2ccc(O)c(O)c2)cs1`, the GI50 was 5.46 µM (inactive) with SF-539; 2.79 µM (inactive) in the experiment on UO-31; 6.67 µM (inactive) with A549; 3.26 µM (inactive) in the experiment with TK-10; 4.88 µM (inactive) in the experiment with MDA-MB-435; 1.53 µM (inactive) in the experiment on RPMI-8226. The GI50 with DU-145 was 4.94 µM (inactive); in the experiment on HT-29, 4.63 µM (inactive); in the experiment with CAKI-1, 4.63 µM (inactive); in the experiment on CCRF-CEM it was 1.23 µM (inactive); in the experiment on K562 it was 1.36 µM (inactive); in the experiment with 786-0, 2.54 µM (inactive). For the same molecule, the GI50 was 0.447 µM (active) in the experiment on MOLT-4; 7.76 µM (inactive) in the experiment on IGROV-1; 3.55 µM (inactive) in the experiment with LOX IMVI; 7.24 µM (inactive) in the experiment on SK-OV-3; 2.47 µM (inactive) with SK-MEL-2; 5.05 µM (inactive) in the experiment on NCI-H460. For the same molecule, the figures for the GI50 in the experiment with SN12C and in the experiment with MDA-N were 4.79 µM (inactive) and 4.98 µM (inactive), respectively.

For the molecule `OCc1ccc2c(c1)CC1(C2)Cc2cc3c(cc2C1)CCC3`, the GI50 is 3.57 µM (inactive) in the experiment with SF-539; 4.97 µM (inactive) in the experiment on UO-31; 8.47 µM (inactive) in the experiment with A549; 13 µM (inactive) in the experiment on TK-10; 0.204 µM (active) with MDA-MB-435; 2.76 µM (inactive) in the experiment with RPMI-8226. Besides, the GI50 with DU-145 was 5.89 µM (inactive); in the experiment on HT-29, 2.22 µM (inactive); in the experiment with CAKI-1 it was 6.31 µM (inactive); in the experiment on CCRF-CEM it was 2.74 µM (inactive); in the experiment with K562, 0.585 µM (active); with 786-0, 5.51 µM (inactive). Besides, the GI50 is 4.41 µM (inactive) in the experiment on MOLT-4; 7.87 µM (inactive) in the experiment with IGROV-1; 3.66 µM (inactive) in the experiment with LOX IMVI; 11.4 µM (inactive) in the experiment on SK-OV-3; 3.75 µM (inactive) in the experiment on SK-MEL-2; 3.87 µM (inactive) with NCI-H460. The GI50 is 2.45 µM (inactive) in the experiment with SN12C and 0.339 µM (active) in the experiment with MDA-N.

Regarding `COc1cc(C2c3cc4c(cc3[C@H](OCCN(C)C)[C@@H]3COC(=O)C23)OCO4)cc(OC)c1O` (stereo not given in full), the GI50 was 0.0671 µM (active) in the experiment on SF-539; 0.417 µM (active) in the experiment with UO-31; 0.0334 µM (active) in the experiment with A549; 2.51 µM (inactive) in the experiment with TK-10; 2 µM (inactive) in the experiment with MDA-MB-435; 0.938 µM (active) with RPMI-8226. In addition, the GI50 in the experiment with DU-145 is 0.134 µM (active); in the experiment on HT-29 it was 0.621 µM (active); in the experiment with CAKI-1, 0.0519 µM (active); in the experiment with CCRF-CEM, 0.0791 µM (active); with K562, 0.713 µM (active); in the experiment on 786-0 it was 0.0614 µM (active). The GI50 in the experiment on MOLT-4 was < 0.0123 µM (active); in the experiment on IGROV-1, 1.36 µM (inactive); with LOX IMVI, 0.0931 µM (active); with SK-OV-3, 0.0912 µM (active); in the experiment with SK-MEL-2, 0.706 µM (active); in the experiment on NCI-H460, < 0.01 µM (active). In addition, the GI50 in the experiment on SN12C is 0.0624 µM (active); in the experiment with MDA-N, 2.12 µM (inactive).

`O=c1oc2ccc(Cl)cc2cc1-c1cn2ccsc2n1`: the GI50 is 98.4 µM (inactive) in the experiment with SF-539; 34.3 µM (inactive) in the experiment on UO-31; 38.4 µM (inactive) in the experiment with A549; > 100 µM (inactive) in the experiment with TK-10; 40.8 µM (inactive) in the experiment on MDA-MB-435; 41.5 µM (inactive) with RPMI-8226. Also, the GI50 in the experiment with DU-145 was 95.7 µM (inactive); with HT-29, 52.8 µM (inactive); in the experiment with CAKI-1 it was 42.8 µM (inactive); in the experiment with CCRF-CEM it was 25.8 µM (inactive); in the experiment on K562, 33.5 µM (inactive); in the experiment on 786-0, 58.5 µM (inactive). Further, the GI50 with MOLT-4 was 24.4 µM (inactive); in the experiment with IGROV-1, 20.5 µM (inactive); in the experiment on LOX IMVI, 43.2 µM (inactive); in the experiment with SK-OV-3, 83.6 µM (inactive); with SK-MEL-2, 50.6 µM (inactive); with NCI-H460, 49.9 µM (inactive). Besides, the GI50 with SN12C is 57 µM (inactive); in the experiment on MDA-N, 46 µM (inactive).

As for `C=CC[C@]1(/C=N/O)CN(S(=O)(=O)CC[Si](C)(C)C)C[C@H]2CC=CC[C@H]21`, the GI50 was 18.2 µM (inactive) in the experiment on SF-539; 26.3 µM (inactive) in the experiment on UO-31; 16 µM (inactive) with A549; 19.5 µM (inactive) in the experiment on TK-10; 29.4 µM (inactive) with MDA-MB-435; 13.4 µM (inactive) in the experiment on RPMI-8226. The GI50 in the experiment with DU-145 is 20.6 µM (inactive); with HT-29 it was 16.2 µM (inactive); with CAKI-1 it was 17.1 µM (inactive); in the experiment on CCRF-CEM, 14 µM (inactive); with K562, 18.4 µM (inactive); in the experiment with 786-0, 18.5 µM (inactive). In addition, the GI50 was 16.4 µM (inactive) in the experiment with MOLT-4; 15.4 µM (inactive) in the experiment with IGROV-1; 19.7 µM (inactive) in the experiment on LOX IMVI; 24.2 µM (inactive) in the experiment on SK-OV-3; 15 µM (inactive) in the experiment with SK-MEL-2; 18.4 µM (inactive) in the experiment with NCI-H460. Also, the GI50 with SN12C was 16.2 µM (inactive); with MDA-N, 20.3 µM (inactive).

On to `OCCN(C1=NCCN1)/[N+](=C/c1ccccc1O)[CH-]c1ccccc1O`, for which the GI50 was > 100 µM (inactive) in the experiment on SF-539; 37 µM (inactive) in the experiment with UO-31; > 100 µM (inactive) with A549; > 100 µM (inactive) with TK-10; > 100 µM (inactive) in the experiment with MDA-MB-435; > 100 µM (inactive) in the experiment on RPMI-8226. Also, the GI50 in the experiment with DU-145, in the experiment on HT-29, in the experiment with CAKI-1, in the experiment on CCRF-CEM, in the experiment on K562 and with 786-0 was > 100 µM (inactive) in each case. Further, the GI50 in the experiment with MOLT-4, in the experiment on IGROV-1, in the experiment with LOX IMVI, in the experiment with SK-OV-3, in the experiment on SK-MEL-2 and in the experiment on NCI-H460 was > 100 µM (inactive) each time. Also, the GI50 in the experiment with SN12C and with MDA-N was > 100 µM (inactive) each time.
